Data from patent US20200115417A1, “A CYCLIC PEPTIDE AND PHARMACEUTICAL COMPOSITION COMPRISING THE SAME FOR INHIBITING PROLIFERATION OF HEV” (priority 2018, published 2020).
“Also recorded” adds a separate entry of the source. Where no end group is shown, it is not given here.

What was measured:
p6 HEV [1] = experiment: ELISA of viral capsid protein ORF2 in viruses released to culture medium; type: cell-based; settings: 10 μM CP11 treated samples; Huh7 cells
Method: (§1) For estimation of the amount of virus released to the culture medium, medium from the above samples were collected and clarified by centrifugation at 7197×g, 4° C. for 15 minutes. 8% PEG (polyethylene glycol) 6000 and 0.4 M NaCl (final concentration) was added to the clarified samples and the mixture was incubated at 0° C. for 16 hours, followed by centrifugation at 20,000×g for 30 minutes. The pellet was resuspended in PBS and RNA was isolated using QIAamp Viral RNA Mini kit. Intracellular RNA was isolated using TRI reagent (MRC, Ohio, USA), following manufactures protocol.
An ELISA was standardized using purified recombinant ORF2 protein (112-608aa region) as the antigen and a rabbit polyclonal anti-ORF2 antibody, which was earlier generated and characterized in our laboratory (48). Specificity of the assay was monitored by including appropriate controls such as rabbit preimmune serum and competition with the peptide, which was used to generate the antibody. […]
For ELISA mediated quantification of p6 HEV present in the culture medium, PEG 6000 precipitated virus was resuspended in PBS and coated onto the ELISA plate overnight at 4° C. […]

p6 HEV [2] = experiment: QRT-PCR of intracellular p6 HEV sense strand RNA; type: cell-based; settings: 10 μM CP11 every alternate day for 6 days; Huh7 cells; normalized to GAPDH
Method: (§2) The genomic RNAs of p6 HEV and p6 HEV-Luc were synthesized in vitro and size/integrity was monitored by formaldehyde agarose gel electrophoresis. ORF4-Huh7 cell line were prepared as reported (48) and maintained in Dulbecco's modified eagle medium containing 10% fetal calf serum, 50 IU/ml penicillin and streptomycin in 5% CO2. 200 μg/ml hygromycin was added to the cells during routine maintenance. Cells were then electroporated with genomic RNAs of p6 HEV and p6 HEV-Luc in a 4 mm cuvette at 200 Volt, 950 μF and infinite resistance. Electroporated cells were maintained in complete media for 5 days prior to the treatment with CP11.
On 6th day post-electroporation/post-infection, HEV infection model was treated every alternate day with 10 μM of CP11 for 6 days followed by measurement of cell viability, quantification of replication of the viral genome and release of the progeny viruses. […]
For measuring levels of p6 HEV sense RNA and host GAPDH RNA, cDNA was synthesized using random hexamers and Superscript III reverse transcriptase. For subsequent quantitative real time, FP of sequence “[…]” (SEQ ID NO:3) and RP of sequence “accgggacagcgtgga” (SEQ ID NO:4) were used for p6 HEV sense and FP of sequence “[…]” (SEQ ID NO:5) and RP of sequence “[…]” (SEQ ID NO:6) were used for host GAPDH RNA.

ORF4 and ORF3 = experiment: In vitro His-pull down assay, ORF3-ORF4 interaction; type: binding, HEV; settings: 1 μM in the reaction mix; western blot
Method: (§3) pGBKT7 RdRp, TSG101 and ORF4 plasmids, in which coding sequence for RdRp, TSG101 and ORF4 is cloned under the control of the T7 promoter along with a N-terminal myc epitope tag was used for in vitro production of HEV RdRp, ORF4 and human TSG101 proteins. A coupled in vitro transcription-translation kit (TNT T7 kit) was used, following manufactures guidelines (Promega, Wis., USA). Aliquots of the TNT expressed proteins were mixed with 2× Laemelli buffer [125 mM Tris (pH 6.8), 4% SDS, 20% glycerol, 100 mM DTT and 0.02% bromophenol blue], incubated at 950 C for 5 minutes, resolved by SDS PAGE and western blotted with anti-myc antibody to confirm protein expression.
An in vitro His-pull down assay was performed to monitor whether cyclic peptide inhibits the interaction between HEV ORF3 and human TSG101 proteins. His tagged ORF3 protein was purified from E. coli BL21 (DE3) following previously described protocols (50). […]
Empty pGBKT7 vector was translated in parallel (denoted as mock lysate) to rule out non-specific cross reactivity of myc antibody with proteins present in the rabbit reticulocyte lysate. […] Two non-specific bands were detected in all samples (denoted by *). […]

[3] = test system: p6 HEV expressing Huh7 cells; experiment: MTT cell viability assay; type: cell-based, human; settings: 10 μM CP11 every alternate day for 6 days
Method: as §2
(§4) On 6th day post-electroporation/post-infection, HEV infection model was treated every alternate day with 10 μM of CP11 for 6 days followed by measurement of cell viability, quantification of replication of the viral genome and release of the progeny viruses.
Cell viability was measured by MTT [3-(4,5-dimethyl-2-thiazolyl)-2,5-diphenyl-2H-tetrazolium bromide] assay using cell titer 96 non-radioactive cell proliferation assay kit.

p6 HEV-Luc replicon = p6 HEV-Luc replicon Gaussia luciferase assay; type: cell-based; settings: 10 μM CP11 for 48 hours; Huh7 cells; normalized to cell viability
Method: Possible effect of CP11 on HEV replication was investigated using a Huh7 cell-based model of p6 HEV replicon expressing luciferase. Luciferase assay was done through well-known methods. Briefly, Huh7 cells were electroporated with in vitro synthesized capped genomic RNA of p6 HEV-Luc and maintained in complete media for 5 days prior to the treatment with the cyclic peptide. 6th day post electroporation, 10 μM CP11 was added for 48 hours. Gaussia luciferase activity in the culture media was measured using Renilla luciferase assay kit (Promega, Wisconsin, USA). Luciferase values were normalized to that of the cell viability assay, and plotted as mean±SEM.

[4] = target: T1, HEV ORF3 and human TSG101 proteins (Homo sapiens, UniProt Q99816); experiment: In vitro His-pull down assay, ORF3-TSG101 interaction; type: binding; settings: for interaction between ORF3 and TSG101: western blot
T1 construct: made in house; host or cells: ORF3-his: E. coli BL21 (DE3); TSG101-myc: coupled in vitro transcription-translation (TNT T7 kit, Promega; rabbit reticulocyte lysate) from pGBKT7 TSG101
T1 sequence (Q99816 1-390): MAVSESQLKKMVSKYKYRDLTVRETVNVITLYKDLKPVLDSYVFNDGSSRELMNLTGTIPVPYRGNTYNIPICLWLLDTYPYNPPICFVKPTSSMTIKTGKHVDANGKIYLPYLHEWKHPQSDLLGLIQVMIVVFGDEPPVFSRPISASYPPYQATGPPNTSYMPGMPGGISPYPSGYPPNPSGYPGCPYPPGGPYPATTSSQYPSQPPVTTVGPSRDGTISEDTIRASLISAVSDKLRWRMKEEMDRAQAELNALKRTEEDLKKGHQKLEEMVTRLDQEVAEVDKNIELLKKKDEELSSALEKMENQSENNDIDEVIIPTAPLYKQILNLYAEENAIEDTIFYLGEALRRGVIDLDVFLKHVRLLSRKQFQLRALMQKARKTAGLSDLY
Method: as §3
An in vitro His-pull down assay was performed to monitor whether cyclic peptide inhibits the interaction between HEV ORF3 and human TSG101 proteins. His tagged ORF3 protein was purified from E. coli BL21 (DE3) following previously described protocols (50). Ni-NTA super flow agarose (Thermo Scientific, Massachusetts, USA) bound ORF3-his was equally aliquoted into separate 1.5 ml tubes followed by addition of TNT generated mock lysate, RdRp-myc lysate, TSG101-myc lysate, ORF4-myc lysate and CP11 (1 μM or 10 μM) in the required combinations in phosphate buffered saline (PBS; 10 mM PO43-, 137 mM NaCl, 2.7 mM KCl) supplemented with protease inhibitor cocktail. Samples were incubated on a flip flop shaker at 4° C. for 1 hour, followed by three washes in PBS. 30p1 of 2× Laemelli buffer was added to the beads and incubated at 950 C for 5 minutes. Aliquots of the eluted proteins were resolved by SDS-PAGE and western blotting was done using anti-myc and anti-ORF3 antibodies.
Empty pGBKT7 vector was translated in parallel (denoted as mock lysate) to rule out non-specific cross reactivity of myc antibody with proteins present in the rabbit reticulocyte lysate. RdRp, TSG101 and ORF4 plasmid containing samples produced bands corresponding to their expected size (FIG. 1B). Two non-specific bands were detected in all samples (denoted by *). […]

g-1 HEV = experiment: Release of g-1 HEV from infected ORF4-Huh7 cells; type: cell-based; settings: g-1 HEV clinical isolate, 10 μM CP11 every alternate day for 6 days
Method: For infection studies, the HEV infection model was prepared by infecting 4×10^5 ORF4-Huh7 cells with 8×10^6 genome copies of the g-1 HEV clinical isolate for one hour, followed by three times washing of infected cells in PBS and maintenance in complete media for 5 days prior to treatment with CP11.
as §4, §1

## CP11: Peptide 11 (CGWIYWNV; SEQ ID NO:1), cyclized and conjugated with the linear Tat peptide (CGRKKRRQRRRPPQ; SEQ ID NO:2) (also: peptide 11 cyclized, mode not given here, conjugated to linear Tat peptide, linkage not given here)
p6 HEV [1]
  ORF2 level in PEG 6000 precipitated virus from culture medium: significantly less
p6 HEV [2]
  viral sense strand RNA level in cells: significant increase
ORF4 and ORF3
  interaction between ORF4 and ORF3: remains unaffected
[3]
  cytotoxic effect (cell viability, MTT): ruled out the possible cytotoxic effect; also recorded: without showing any cytotoxicity
p6 HEV-Luc replicon
  luciferase activity (viral replication/RNA stability): no effect
[4]; 1 μM in the reaction mix
  interaction between ORF3 and TSG101: significantly reduced
[4]; 10 μM of CP11 in the reaction mixture
  interaction between ORF3 and TSG101: completely inhibited
[4]; out of several cyclic peptides screened
  inhibition of the interaction between ORF3 and TSG101 proteins, compared with other peptides: most efficiently
g-1 HEV
  block of release of g-1 HEV: approximately 90%
